Patent US20100204295A1, “TREATMENT OF ALLERGIC DISEASE WITH IMMUNOMODULATOR COMPOUNDS” (SCICLONE PHARMACEUTICALS, INC., priority 2007, published 2010)

Legend:
[1] = system: infiltration of the lung tissue; assay: Morphometric peribronchial and perivascular infiltration of lung tissue, ovalbumin asthma model; type: in vivo, mice of the Balb/C line; conditions: age group not given
From the text: Female, non-pathogenic mice of the Balb/C line (“Pushchtino” laboratory animal breeders) were kept under conditions of an SPF-vivarium at a constant temperature, 12-hour day/night cycle, and received sterile feed and water ad libitum. In two series of experiments, mice from 6-8 weeks and 18-20 weeks of age were used at the beginning of the experiment, respectively. The animals were immunized twice at 5-day intervals with an ovalbumin solution (Sigma) in an adjuvant based on ammonium sulfate at a dosage of 8 μg per mouse. SCV-07 was administered intra-abdominally in a volume of 200 μL at a dosage of 0.1 or 1.0 μg/kg in PBS once a day from 6 through 11 days after the first immunization. The control group received physiological saline on the same days. Each group comprised 6 to 10 animals. On the 12th, 16th and 20th days after the first immunization, the animals were then placed in a hermetic box, in which an aerosol of 1% ovalbumin solution (OvA) in PBS was generated with an ultrasonic nebulizer LD-207U (Little Doctor) for 1 minute with continuous mixing of air. The duration of exposure of the animals to the aerosol was 15 minutes. Analysis of the severity of experimental allergic asthma was carried out 24 hours after the last aerosol exposure. […] Sections of […] were prepared. The sections were stained with hematoxylin-eosin to evaluate the intensity of cell infiltration and Schiff-iodic acid to count the number of goblet cells. Quantitative evaluation of the peribronchial and perivascular infiltration was accomplished morphometrically with the Scion Image program package. Three bronchi and three vessels were analyzed on sections of the lungs from each animal. The area of the infiltration was calculated as the difference between the area of the tissue containing bronchi or vessels and the infiltration surrounding it, and the area of the vessel or bronchus itself. The indices of infiltration were calculated as the ratio of the area of the infiltration to the area of the vessel or bronchus.

[2] = system: experimental allergic asthma (BAL cells); assay: Cytological composition of bronchoalveolar lavage in allergic ovalbumin asthma model; type: in vivo, mice of the Balb/C line; conditions: for Total cellularity of the BAL: animals 6-8 weeks, mean±SD; for Eosinophils, % of BAL cells / Lymphocytes, % of BAL cells / Monocytes/Macrophages, % of BAL cells / Neutrophils, % of BAL cells: animals 6 to 8 weeks; for Eosinophils in BAL, thousand / Lymphocytes in BAL, thousand / Monocytes/Macrophages in BAL, thousand / Neutrophils in BAL, thousand / Total number of cells in the lavages: animals 18 to 20 weeks
From the text: Female, non-pathogenic mice of the Balb/C line (“Pushchtino” laboratory animal breeders) were kept under conditions of an SPF-vivarium at a constant temperature, 12-hour day/night cycle, and received sterile feed and water ad libitum. In two series of experiments, mice from 6-8 weeks and 18-20 weeks of age were used at the beginning of the experiment, respectively.
The animals were immunized twice at 5-day intervals with an ovalbumin solution (Sigma) in an adjuvant based on ammonium sulfate at a dosage of 8 μg per mouse. SCV-07 was administered intra-abdominally in a volume of 200 μL at a dosage of 0.1 or 1.0 μg/kg in PBS once a day from 6 through 11 days after the first immunization. The control group received physiological saline on the same days. Each group comprised 6 to 10 animals. On the 12th, 16th and 20th days after the first immunization, the animals were then placed in a hermetic box, in which an aerosol of 1% ovalbumin solution (OvA) in PBS was generated with an ultrasonic nebulizer LD-207U (Little Doctor) for 1 minute with continuous mixing of air. The duration of exposure of the animals to the aerosol was 15 minutes. Analysis of the severity of experimental allergic asthma was carried out 24 hours after the last aerosol exposure.
The mice were killed by intra-abdominal administration of a lethal dose of sodium barbital. Bronchoalveolar lavage (BAL) was obtained by washing the lungs through the trachea with 1 mL PBS solution. The BAL cells were precipitated by centrifuging, the precipitate was resuspended, the cell concentration was counted in a Goryaev chamber, and smears were prepared. The smears were dried, fixed and stained with Romanovskii dye. The cytological composition of the bronchoalveolar lavage was investigated under a light microscope with oil immersion (eyepiece×16, objective×100). The numbers of monocyte/macrophages, neutrophils, eosinophils and lymphocytes per 200 cells were counted, in which no less than 5 visual fields were viewed. The relative number of cells of each cell population was expressed as the percentage of the total number of cells.
The statistical processing of the results was carried out with the Microsoft Excel and SPSS programs for Windows v.13. The normality of the distribution was determined with the Kholmogorov-Smimov criterion. To evaluate the significance of the differences between groups for normally distributed values, we used the two-sided Student test with unequal deviations, for non-normally distributed differences—the Mann-Whitney test. The differences were considered significant at p<0.05. Unless otherwise stated, the data are presented in the form of means±standard deviation.

N[C@H](CCC(=O)N[C@@H](Cc1c[nH]c2ccccc12)C(=O)O)C(=O)O [SCV-07, γ-D-glutamyl-L-tryptophan]
Index of peribronchial infiltration, conventional units ([1]; 0.1 μg/kg): 0.39 ± 0.19 conventional units | Index of perivascular infiltration, conventional units ([1]; 0.1 μg/kg): 1.67 ± 1.08 conventional units | Index of peribronchial infiltration, conventional units ([1]; 1 μg/kg): 0.35 ± 0.14 conventional units | Index of perivascular infiltration, conventional units ([1]; 1 μg/kg): 1.48 ± 1.02 conventional units | Total cellularity of the BAL ([2]; SCV-07 0.1 μg/kg intra-abdominally): 1.96±0.99 million | Total cellularity of the BAL ([2]; SCV-07 1 μg/kg): 2.21±1.16 million | Eosinophils, % of BAL cells ([2]; 0.1 μg/kg): 57.4 ± 21.3% | Lymphocytes, % of BAL cells ([2]; 0.1 μg/kg): 0.4 ± 0.5% | Monocytes/Macrophages, % of BAL cells ([2]; 0.1 μg/kg): 41.2 ± 20.7% | Neutrophils, % of BAL cells ([2]; 0.1 μg/kg): 0.9 ± 0.8% | Eosinophils, % of BAL cells ([2]; 1 μg/kg): 56.7 ± 9.5 % | Lymphocytes, % of BAL cells ([2]; 1 μg/kg): 0.6 ± 0.7% | Monocytes/Macrophages, % of BAL cells ([2]; 1 μg/kg): 40.6 ± 9.4 % | Neutrophils, % of BAL cells ([2]; 1 μg/kg): 2.1 ± 0.9% | Eosinophils in BAL, thousand ([2]; 0.1 μg/kg): 456 ± 144 thousand | Lymphocytes in BAL, thousand ([2]; 0.1 μg/kg): 22 ± 11 thousand | Monocytes/Macrophages in BAL, thousand ([2]; 0.1 μg/kg): 629 ± 134 thousand | Neutrophils in BAL, thousand ([2]; 0.1 μg/kg): 17 ± 14 thousand | Total number of cells in the lavages ([2]; 0.1 μg/kg, p<0.05 vs control): 1.12±0.15 million | Eosinophils in BAL, thousand ([2]; 1 μg/kg): 690 ± 247 thousand | Lymphocytes in BAL, thousand ([2]; 1 μg/kg): 26 ± 9 thousand | Monocytes/Macrophages in BAL, thousand ([2]; 1 μg/kg): 586 ± 144 thousand | Neutrophils in BAL, thousand ([2]; 1 μg/kg): 18 ± 10 thousand | Total number of cells in the lavages ([2]; 1 μg/kg): 1.32±0.23 million
